Reference: the Kinase Knowledgebase extract (Sharma et al. 2016)
pIC50: −log10 of the molar value.

How the values were obtained:
EGFR (human) [1] = biological target: EGFR (human) (UniProt P00533); conditions: HN5
EGFR (human) [2] = biological target: EGFR (human) (UniProt P00533); conditions: hop-62
EGFR (human) [3] = biological target: EGFR (human) (UniProt P00533); conditions: h322m
EGFR (human) [4] = biological target: EGFR (human) (UniProt P00533); conditions: sf-295
EGFR (human) [5] = biological target: EGFR (human) (UniProt P00533); conditions: u251
EGFR (human) [6] = biological target: EGFR (human) (UniProt P00533); conditions: lox-imvi
EGFR (human) [7] = biological target: EGFR (human) (UniProt P00533); conditions: m14
EGFR (human) [8] = biological target: EGFR (human) (UniProt P00533); conditions: sk-mel-28
EGFR (human) [9] = biological target: EGFR (human) (UniProt P00533); conditions: uacc-257
EGFR (human) [10] = biological target: EGFR (human) (UniProt P00533); conditions: mcf-7
EGFR (human) [11] = biological target: EGFR (human) (UniProt P00533); conditions: mcf7/adr-res
EGFR (human) [12] = biological target: EGFR (human) (UniProt P00533); conditions: t-47d
EGFR (human) [13] = biological target: EGFR (human) (UniProt P00533); conditions: delta
EGFR (human) [14] = biological target: EGFR (human) (UniProt P00533); conditions: a549
EGFR (human) [15] = biological target: EGFR (human) (UniProt P00533); conditions: hop-92
EGFR (human) [16] = biological target: EGFR (human) (UniProt P00533); conditions: hl60tb

Sequence of EGFR (human) (P00533 whole entry, looked up): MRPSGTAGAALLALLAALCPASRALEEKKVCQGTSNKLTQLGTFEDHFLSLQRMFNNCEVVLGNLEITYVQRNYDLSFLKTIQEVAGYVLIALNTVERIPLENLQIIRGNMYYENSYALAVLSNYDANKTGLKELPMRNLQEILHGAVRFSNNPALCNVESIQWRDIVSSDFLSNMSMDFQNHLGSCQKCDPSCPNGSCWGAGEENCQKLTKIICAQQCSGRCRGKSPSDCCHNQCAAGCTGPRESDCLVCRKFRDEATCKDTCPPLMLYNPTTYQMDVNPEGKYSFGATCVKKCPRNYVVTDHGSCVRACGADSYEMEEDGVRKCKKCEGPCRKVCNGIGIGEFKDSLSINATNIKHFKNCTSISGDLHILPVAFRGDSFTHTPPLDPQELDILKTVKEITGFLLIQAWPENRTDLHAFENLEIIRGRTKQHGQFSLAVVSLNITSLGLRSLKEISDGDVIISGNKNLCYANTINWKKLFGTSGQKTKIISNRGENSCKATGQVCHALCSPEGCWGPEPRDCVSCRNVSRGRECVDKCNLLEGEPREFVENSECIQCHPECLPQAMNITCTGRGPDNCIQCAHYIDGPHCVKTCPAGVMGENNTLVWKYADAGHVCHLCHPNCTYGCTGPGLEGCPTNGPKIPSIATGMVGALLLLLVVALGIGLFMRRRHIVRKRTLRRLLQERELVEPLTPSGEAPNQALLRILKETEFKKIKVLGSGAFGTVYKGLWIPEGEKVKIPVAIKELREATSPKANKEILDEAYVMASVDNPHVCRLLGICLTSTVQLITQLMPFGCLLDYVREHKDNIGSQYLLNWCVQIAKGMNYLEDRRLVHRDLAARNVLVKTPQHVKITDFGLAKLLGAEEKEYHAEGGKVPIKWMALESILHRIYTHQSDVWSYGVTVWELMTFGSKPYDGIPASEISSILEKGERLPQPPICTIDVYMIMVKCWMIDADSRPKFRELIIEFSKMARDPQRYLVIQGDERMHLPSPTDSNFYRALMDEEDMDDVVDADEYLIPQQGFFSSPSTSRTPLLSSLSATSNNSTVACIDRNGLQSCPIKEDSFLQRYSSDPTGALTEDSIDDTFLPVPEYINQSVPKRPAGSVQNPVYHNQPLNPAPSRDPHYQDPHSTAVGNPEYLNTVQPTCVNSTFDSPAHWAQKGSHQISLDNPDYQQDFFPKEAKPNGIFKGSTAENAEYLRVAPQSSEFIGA

SMILES	pIC50 (EGFR (human) [1])	GI50 (EGFR (human) [2]) [µM]	GI50 (EGFR (human) [3]) [µM]	GI50 (EGFR (human) [4]) [µM]	GI50 (EGFR (human) [5]) [µM]	GI50 (EGFR (human) [6]) [µM]	GI50 (EGFR (human) [7]) [µM]	GI50 (EGFR (human) [8]) [µM]	GI50 (EGFR (human) [9]) [µM]	GI50 (EGFR (human) [10]) [µM]	GI50 (EGFR (human) [11]) [µM]	GI50 (EGFR (human) [12]) [µM]	GI50 (EGFR (human) [13]) [µM]	GI50 (EGFR (human) [14]) [µM]	GI50 (EGFR (human) [15]) [µM]	GI50 (EGFR (human) [16]) [µM]
N#CC(C#N)=C(N)/C(C#N)=C/c1ccc([N+](=O)[O-])s1	4.91	19.5	20.9	17.4	18.6	11.5	12	17	10.5	10.5	21.4	6.91	4.07	–	–	–
CCOC(=O)/C(C#N)=C/c1ccc([N+](=O)[O-])s1	4.47	14.8	17	2.09	13.5	1.86	1.74	2.95	2.09	3.09	3.47	2.75	12	15.5	11.5	0.28
N#CC(C#N)=Cc1csc([N+](=O)[O-])c1	4.64	25.7	74.1	–	–	30.9	17.8	16.2	19	41.7	37.1	22.9	1.99	> 100	30.9	42.6
